Test system: Cercosporidium personatum
Experiment: Greenhouse test: efficacy on peanut late leaf spot, foliar spray
Type: in vivo
Conditions: leaves sprayed, infected peanut plants
Protocol: The following greenhouse test was conducted Sep. 14, 2019. Peanut plants (Arachis hypogaea) were used in the test as the crop plant. The peanut plants were infected Cercosporidium personatum.
Leaves were sprayed with inpyfluxam, chlorothalonil, benzovindiflupyr, prothioconazole, and/or sulfur at the rates disclosed in Table 1. All data was analyzed for significance.

## inpyrfluxam
Application rate 2.0 ounces/acre
  % Control: 32.5b %
Application rate 3.0 ounces/acre
  % Control: 31.3bc %
Application rate 4.0 ounces/acre
  % Control: 30.0bc %

## OC(Cc1ccccc1Cl)(Cn1nc[nH]c1=S)C1(Cl)CC1 (centres unmarked) [Prothioconazole, prothioconazole]
Application rate 7.0 ounces/acre
  % Control: 10.0d %

## N#Cc1c(Cl)c(Cl)c(Cl)c(C#N)c1Cl [Chlorothalonil, chlorothalonil]
Application rate 24.0 ounces/acre
  % Control: 27.5c %
